According to the supplement of paper PMC13380429:

Tests used:
Details in all cases: 72 h
[1] = test system: Caco-2; assay: cell viability relative to DMSO; higher = less toxic
[2] = test system: Calu-3; assay: as above
[3] = test system: HepG2; assay: as above
[4] = test system: U2OS; assay: as above
[5] = test system: Vero E6; assay: as above
[6] = test system: Caco-2; assay: relative viability EC50 (midpoint between 100% and the lowest measured viability); higher = less toxic
[7] = test system: Calu-3; assay: as above
[8] = test system: HepG2; assay: as above
[9] = test system: U2OS; assay: as above
[10] = test system: Vero E6; assay: as above
[11] = test system: Caco-2; assay: drug sensitivity score (DSS) for viability; higher = more toxic; extreme values may be limits of the assay
[12] = test system: Calu-3; assay: as above
[13] = test system: HepG2; assay: as above
[14] = test system: U2OS; assay: as above
[15] = test system: Vero E6; assay: as above

Row | SMILES | cell viability ([1]; 1 nM) [%] | cell viability ([1]; 10 nM) [%] | cell viability ([1]; 100 nM) [%] | cell viability ([1]; 1000 nM) [%] | cell viability ([1]; 10000 nM) [%] | cell viability ([2]; 1 nM) [%] | cell viability ([2]; 10 nM) [%] | cell viability ([2]; 100 nM) [%] | cell viability ([2]; 1000 nM) [%] | cell viability ([2]; 10000 nM) [%] | cell viability ([3]; 1 nM) [%] | cell viability ([3]; 10 nM) [%] | cell viability ([3]; 100 nM) [%] | cell viability ([3]; 1000 nM) [%] | cell viability ([3]; 10000 nM) [%] | cell viability ([4]; 1 nM) [%] | cell viability ([4]; 10 nM) [%] | cell viability ([4]; 100 nM) [%] | cell viability ([4]; 1000 nM) [%] | cell viability ([4]; 10000 nM) [%] | cell viability ([5]; 1 nM) [%] | cell viability ([5]; 10 nM) [%] | cell viability ([5]; 100 nM) [%] | cell viability ([5]; 1000 nM) [%] | cell viability ([5]; 10000 nM) [%] | relative viability EC50 [6] [µM] | relative viability EC50 [7] [µM] | relative viability EC50 [8] [µM] | relative viability EC50 [9] [µM] | relative viability EC50 [10] [µM] | drug sensitivity score [11] | drug sensitivity score [12] | drug sensitivity score [13] | drug sensitivity score [14] | drug sensitivity score [15]
1 | CC(C)[C@@H]1CC[C@@H](C)C[C@H]1O [levomenthol] | 93.3 | 84.4 | 84.7 | 94.4 | 104 | 98 | 92.9 | 88.9 | 96.8 | 90.5 | 102 | 92.8 | 101 | 104 | 103 | 105 | 101 | 101 | 101 | 95.5 | 95.3 | 108 | 101 | 91.2 | 94.9 | > 10 | > 10 | > 10 | > 10 | > 10 | 0 | 0 | 0 | 0 | 0
2 | CN(Cc1ccccc1)C(=O)[C@H](Cc1ccc2ccccc2c1)NC(=O)[C@@H]1CCCN1C(=O)Nc1ccccc1[N+](=O)[O-] [SDZ-NKT-343] | 96.3 | 97.3 | 96.1 | 89 | 75.1 | 95 | 93.7 | 98.9 | 97.3 | 90.7 | 102 | 93.9 | 103 | 93.6 | 92.2 | 105 | 103 | 101 | 106 | 87.3 | 102 | 98.7 | 106 | 97.7 | 99.2 | > 10 | > 10 | > 10 | > 10 | > 10 | 1.7 | 0 | 0 | 0 | 0
3 | CC(/C=C/C(=O)NO)=C\[C@@H](C)C(=O)c1ccc(N(C)C)cc1 [trichostatin-a] | 97.3 | 101 | 37.1 | 2.4 | 3 | 107 | 103 | 89 | 20.4 | 7.5 | 101 | 93.1 | 84.2 | 0.4 | 0 | 99.7 | 95.4 | 77.3 | 1 | 0.7 | 98.7 | 94.4 | 44 | -0.2 | -0.1 | 0.0788 | 0.336 | 0.194 | 0.162 | 0.0838 | 24.9 | 16 | 20.6 | 21.4 | 24.6
4 | O=C(Nc1ccc(Oc2ccc(Cl)cn2)c(Cl)c1)c1ccccn1 | 98.1 | 97.8 | 104 | 104 | 93.1 | 103 | 108 | 95.1 | 98.6 | 97.7 | 104 | 108 | 109 | 93.7 | 99.1 | 102 | 105 | 99.6 | 104 | 96.2 | 101 | 101 | 102 | 96 | 95.8 | > 10 | > 10 | > 10 | > 10 | > 10 | 0 | 0 | 0 | 0 | 0
5 | Cc1cc(-c2nc(C(=O)Nc3cn(C4CCOCC4)nc3C(N)=O)co2)ccn1 | 97.5 | 94.4 | 101 | 98.2 | 93.3 | 109 | 97 | 85.7 | 95 | 93.2 | 99.9 | 113 | 88.6 | 82.9 | 96.3 | 99 | 94.7 | 99.8 | 100 | 99.3 | 93.5 | 103 | 101 | 93 | 92.1 | > 10 | > 10 | > 10 | > 10 | > 10 | 0 | 0 | 2.9 | 0 | 0
6 | C[C@@H]1CC(=O)c2c(ccc3c2C(=O)c2cccc(O)c2C3=O)C1 [ochromycinone] | 107 | 96.1 | 99.6 | 110 | 112 | 100 | 104 | 103 | 104 | 92.8 | 87.4 | 91 | 96.6 | 96.5 | 76 | 101 | 100 | 93.9 | 99.7 | 99.9 | 100 | 100 | 104 | 93.3 | 85.8 | > 10 | > 10 | > 10 | > 10 | > 10 | 0 | 0 | 1.4 | 0 | 0.6
7 | CCOC(=O)COc1ccc2c(=O)cc(-c3ccccc3)oc2c1 [efloxate] | 93 | 88.6 | 101 | 101 | 96.1 | 105 | 98.9 | 85.8 | 83.5 | 99.1 | 97.9 | 100 | 98.3 | 99.2 | 99.3 | 95.4 | 95.5 | 98.7 | 96.7 | 99.2 | 97 | 100 | 91.9 | 101 | 106 | > 10 | > 10 | > 10 | > 10 | > 10 | 0 | 3 | 0 | 0 | 0
8 | O=C(O)c1cc(O)c2ccc(Cl)cc2n1 [7-chlorokynurenic-acid] | 102 | 96.1 | 97.1 | 99.1 | 109 | 99.9 | 94.1 | 98.4 | 98 | 108 | 106 | 104 | 100 | 101 | 97 | 101 | 97.6 | 96.4 | 94.3 | 108 | 96.7 | 102 | 94.2 | 95.3 | 108 | > 10 | > 10 | > 10 | > 10 | > 10 | 0 | 0 | 0 | 0 | 0
9 | O=C(CCc1ccc(O)cc1)c1c(O)cc(O)cc1O [phloretin] | 92.1 | 101 | 97.5 | 101 | 98.6 | 104 | 93.2 | 98.7 | 98 | 91.3 | 107 | 98.3 | 94.2 | 99.1 | 99.4 | 95.8 | 100 | 103 | 96.8 | 101 | 105 | 102 | 99.9 | 103 | 95.1 | > 10 | > 10 | > 10 | > 10 | > 10 | 0 | 0 | 0 | 0 | 0
10 | CCCCCCOc1nsnc1C1=CCCN(C)C1 [xanomeline] | 109 | 93.8 | 99.1 | 92.3 | 99.1 | 101 | 115 | 100 | 104 | 96.6 | 102 | 102 | 100 | 99.3 | 79.3 | 95.3 | 102 | 97.5 | 98.9 | 92.3 | 105 | 104 | 106 | 101 | 95.9 | > 10 | > 10 | > 10 | > 10 | > 10 | 0 | 0 | 0.7 | 0 | 0
11 | Oc1ccc(OCc2ccccc2)cc1 [monobenzone] | 99.2 | 92.6 | 103 | 107 | 88.3 | 97.5 | 95.5 | 94.6 | 98.9 | 94.5 | 91.6 | 94.9 | 109 | 103 | 90.2 | 107 | 96.9 | 94.9 | 102 | 110 | 95.8 | 97.4 | 97.3 | 100 | 100 | > 10 | > 10 | > 10 | > 10 | > 10 | 0 | 0 | 0 | 0 | 0
12 | O=C1Nc2ccccc2C12OCC1(CO2)COC2(OC1)C(=O)Nc1ccccc12 (stereo not given) [JW-67] | 87.2 | 92.5 | 91.8 | 93.2 | 88.1 | 90.8 | 92.1 | 103 | 87.2 | 85.3 | 97.1 | 98.6 | 93.6 | 98.4 | 105 | 97.6 | 97.5 | 102 | 94.6 | 92.5 | 88.4 | 103 | 91.2 | 90.5 | 86 | > 10 | > 10 | > 10 | > 10 | > 10 | 0 | 0.1 | 0 | 0 | 0.1
13 | COC(=O)[C@@H]1C[C@H](OC(C)=O)C(=O)[C@H]2[C@@]1(C)CC[C@H]1C(=O)O[C@H](c3ccoc3)C[C@]21C [salvinorin-A] | 112 | 112 | 101 | 101 | 97.2 | 110 | 91.3 | 97.5 | 107 | 109 | 88.2 | 106 | 105 | 98.2 | 101 | 97.9 | 101 | 93.1 | 97 | 97.3 | 98.5 | 108 | 106 | 91.8 | 98.4 | > 10 | > 10 | > 10 | > 10 | > 10 | 0 | 0 | 0 | 0 | 0
14 | OCc1ccc(O[C@@H]2O[C@H](CO)[C@@H](O)[C@H](O)[C@H]2O)cc1 [gastrodin] | 106 | 95.9 | 107 | 92 | 106 | 108 | 94.1 | 94.2 | 110 | 104 | 99.1 | 104 | 104 | 107 | 117 | 97.7 | 99.9 | 100 | 99.7 | 98.1 | 95.4 | 99.6 | 95.1 | 92.1 | 95.3 | > 10 | > 10 | > 10 | > 10 | > 10 | 0 | 0 | 0 | 0 | 0
15 | CO[C@H]1/C=C/O[C@@]2(C)Oc3c(C)c(O)c4c(O)c(c5c(nc6cc(C)ccn65)c4c3C2=O)NC(=O)/C(C)=C\C=C\[C@H](C)[C@H](O)[C@@H](C)[C@@H](O)[C@@H](C)[C@H](OC(C)=O)[C@@H]1C [rifaximin] | 137 | 112 | 87 | 98.2 | 96.4 | 94.7 | 95 | 89 | 101 | 94.6 | 110 | 95.3 | 102 | 104 | 106 | 96.7 | 99.3 | 94.6 | 93.3 | 96.4 | 106 | 93.6 | 108 | 106 | 117 | > 10 | > 10 | > 10 | > 10 | > 10 | 0 | 0 | 0 | 0 | 0
